The text below walks through data of patent US7432264B2, “Antimicrobial biaryl compounds” (Isis Pharmaceuticals, Inc., priority 2000, dated 2008).

SMILES strings stand for the structures. ≈ marks a conversion by molar mass, not a printed value. Where two headings read alike, the source gives them in different places. Bounds are passed on as bounds.

Experiment [1] deals with E. coli ATCC 25922. The experiment can be described thus: Minimum inhibitory concentration (MIC), E. coli. In kind it is cell-based, Escherichia coli. The following applies: Escherichia coli. The protocol: (§1) Bacterial Strains. The Streptococcus pyogenes strains, Klebsiella pneumoniae, Escherichia coli, Staphylococcus aureus, Enterococcus faecalis used in the antibacterial activity studies ATCC 14289, 49399, 13883, 25922, 13709, 29212, respectively, are obtained from the American Type Culture Collection, Rockville, Md. The strain E. coli imp— is a mutant strain of wild type E. coli with increased outer membrane permeability and was grown in LB broth at 37 °C. S. pyogenes strain is grown in Todd-Hewitt broth. S. aureus is grown in trypticase soy broth, E. faecalis in Todd-Hewitt broth, wild type E. coli and K. pneumoniae, in nutrient broth.
(§2) Determination of Minimum Inhibitory Concentrations (MICs). The assays were carried out in […] volume in duplicate in 96-well clear flat-bottom plates. The bacterial suspension from an overnight culture growth in appropriate medium was added to a solution of test compound in 4% DMSO in water. Final bacterial inoculum was approximately 10^5-10^6 CFU/well. The percent growth of the bacteria in test wells relative to that observed for a well containing no compound was determined by measuring absorbance at 595 nm (A595) after 24 h. […] Both ampicillin and tetracycline is used as antibiotic-positive controls in each screening assay for S. pyogenes, E. coli imp-, E. coli, S. aureus, E. faecalis, K pneumoniae and P. vulgaris. Ciprofloxacin is used as an antibiotic positive control in each screening assay for P. aeruginosa.

The subject of experiment [2] is S. aureus ATCC 13709. The experiment can be described thus: Minimum inhibitory concentration (MIC), S. aureus. The class given is cell-based, Staphylococcus aureus. To be noted: Staphylococcus aureus. The protocol:
as §1, §2

Setting [3] is: ATCC25922, 24 h, read-out: MIC (E. coli).
[4] abbreviates: ATCC13709, 24 h, read-out: MIC (S. aureus).
Where [5] appears, read: ATCC25922, read-out: MIC (E. coli) +serum.
[6] abbreviates: ATCC25922, read-out: MIC (E. coli) alone.
[7] abbreviates: ATCC13709, read-out: MIC (S. aureus) +serum, with serum.
Setting [8] is: ATCC13709, read-out: MIC (S. aureus) alone, alone (no serum).

A word on the MIC: it is the least concentration at which growth counts as inhibited. On to `Cc1ccc(F)cc1-c1ccc(C(=O)Nc2cccc(-c3ccc(C(=O)NC(C(=O)N4CCNCC4)c4ccc(OCCCN(C)C)cc4)o3)c2)cc1` (centres unmarked) [Compound 52], for which the values for the minimum inhibitory concentration (MIC) in experiment [1] (setting [3]) and in experiment [2] (setting [4]) were 13 to 25 mM (≈ 9330 to 17900 µg/mL) and 6 to 13 mM (≈ 4310 to 9330 µg/mL), respectively.
With `CN(C)CCCOc1ccc(C(NC(=O)c2ccc(-c3cccc(NC(=O)c4ccc(-c5ccccc5F)cc4)c3)o2)C(=O)N2CCNCC2)cc1` (centres unmarked) [Compound 53], the MIC in experiment [1] (setting [3]) was in the range of 13 to 25 mM (≈ 9150 to 17600 µg/mL); in experiment [2] (setting [4]), 6 to 13 mM (≈ 4220 to 9150 µg/mL).
Take `CN(C)CCCOc1ccc(C(NC(=O)c2ccc(-c3cccc(NC(=O)c4ccc(-c5c(F)cccc5F)cc4)c3)o2)C(=O)N2CCNCC2)cc1` (centres unmarked) [Compound 54]: the MIC in experiment [1] (setting [3]) was in the range of 3 to 6 mM (≈ 2170 to 4330 µg/mL); in experiment [2] (setting [4]), 13 to 25 mM (≈ 9380 to 18000 µg/mL).
Turning to `CN(C)CCCOc1ccc(C(NC(=O)c2ccc(-c3cccc(NC(=O)c4ccc(-c5ccc(F)cc5F)cc4)c3)o2)C(=O)N2CCNCC2)cc1` (centres unmarked) [Compound 55], the MIC lay within 25 to 50 mM (≈ 18000 to 36100 µg/mL) in experiment [1] (setting [3]) and 6 to 13 mM (≈ 4330 to 9380 µg/mL) in experiment [2] (setting [4]).
For `CN(C)CCCOc1ccc(C(NC(=O)c2ccc(-c3cccc(NC(=O)c4ccc(-c5ccccc5)cc4F)c3)o2)C(=O)N2CCNCC2)cc1` (centres unmarked) [Compound 59] the same measures were 3 to 6 mM (≈ 2110 to 4220 µg/mL) and 6 to 13 mM (≈ 4220 to 9150 µg/mL).
In the same order, the values of `CN(C)CCCOc1ccc(C(NC(=O)c2ccc(-c3cccc(NC(=O)c4ccc(-c5ccccc5)cc4Cl)c3)o2)C(=O)N2CCNCC2)cc1` (centres unmarked) [Compound 60] are 6 to 13 mM (≈ 4320 to 9360 µg/mL) and 25 to 50 mM (≈ 18000 to 36000 µg/mL).
With `Cc1cc(C(=O)Nc2cccc(-c3ccc(C(=O)NC(C(=O)N4CCNCC4)c4ccc(OCCCN(C)C)cc4)o3)c2)ccc1-c1ccccc1` (centres unmarked) [Compound 62], the minimal inhibitory concentration (MIC) lay within 3 to 6 mM (≈ 2100 to 4200 µg/mL) in experiment [1] (setting [3]) and 12 to 25 mM (≈ 8400 to 17500 µg/mL) in experiment [2] (setting [4]).
As to `CN(C)CCCOc1ccc(C(C(=O)N2CCNCC2)N(C)Cc2ccc(-c3cccc(NC(=O)c4ccc(-c5ccccc5)cc4)c3)o2)cc1` (centres unmarked) [Compound 64], the minimum inhibitory concentration (MIC) in experiment [1] (setting [3]) lay in the range of 6 to 13 mM (≈ 4120 to 8920 µg/mL); in experiment [2] (setting [4]), 3 to 6 mM (≈ 2060 to 4120 µg/mL).
As to `CN(C)CCCOc1ccc(C(NC(=O)c2ccc(-c3cccc(NCc4ccc(-c5ccccc5)cc4)c3)o2)C(=O)N2CCNCC2)cc1` (centres unmarked) [Compound 65], the MIC in experiment [1] (setting [3]) lay in the range of 13 to 25 mM (≈ 8730 to 16800 µg/mL); in experiment [2] (setting [4]), 3 to 6 mM (≈ 2020 to 4030 µg/mL).
As to `CN(C)CCCOc1ccc(C(NC(=O)c2ccc(-c3cccc(N(C)Cc4ccc(-c5ccccc5)cc4)c3)o2)C(=O)N2CCNCC2)cc1` (centres unmarked) [Compound 66], the minimum inhibitory concentration (MIC) in experiment [1] (setting [3]) was 13 to 25 mM (≈ 8920 to 17100 µg/mL); in experiment [2] (setting [4]) it was 3 to 6 mM (≈ 2060 to 4120 µg/mL).
Turning to `CN(C)CCCCC(NC(=O)c1ccc(-c2cccc(NC(=O)c3ccc(-c4ccccc4)cc3)c2)o1)C(=O)N1CCNCC1` (centres unmarked) [Compound 68], the minimum inhibitory concentration (MIC) in experiment [1] (setting [3]) was 50 to 100 mM (≈ 30400 to 60800 µg/mL); in experiment [2] (setting [4]) it was 25 to 50 mM (≈ 15200 to 30400 µg/mL).
For the compound `CN(C)CCCOc1ccc(C(NC(=O)c2ccc(-c3cccc(NC(=O)c4ccc(-c5ccccc5)cc4)c3)s2)C(=O)N2CCNCC2)cc1` (centres unmarked) [Compound 69], the MIC in experiment [1] (setting [3]) and in experiment [2] (setting [4]) was 25 to 50 mM (≈ 17500 to 35100 µg/mL) throughout.
Take `CN(C)CCCOc1ccc(C(NC(=O)c2ccc(-c3cccc(NC(=O)c4ccc(-c5ccccc5)cc4)c3)o2)C(=O)N2CCN(C)CC2)cc1` (centres unmarked) [Compound 70]: the minimal inhibitory concentration (MIC) in experiment [1] (setting [3]) and in experiment [2] (setting [4]) was 25 to 50 mM (≈ 17500 to 35000 µg/mL) each time.
`CN(C)CCCOc1ccc(C(NC(=O)c2ccc(-c3cccc(NC(=O)c4ccc(-c5ccccc5)cc4)c3)o2)C(=O)N2CCN(S(C)(=O)=O)CC2)cc1` (centres unmarked) [Compound 71]: the minimum inhibitory concentration (MIC) in experiment [1] (setting [3]) and in experiment [2] (setting [4]) was more than 100 mM in each case.
Take `COC(=O)N1CCN(C(=O)C(NC(=O)c2ccc(-c3cccc(NC(=O)c4ccc(-c5ccccc5)cc4)c3)o2)c2ccc(OCCCN(C)C)cc2)CC1` (centres unmarked) [Compound 72]: the minimum inhibitory concentration (MIC) in experiment [1] (setting [3]) and in experiment [2] (setting [4]) was more than 100 mM each time.
With `CN(C)CCCOc1ccc(C(NC(=O)c2ccc(-c3cccc(NC(=O)c4ccc(-c5ccccc5)cc4)c3)o2)C(=O)N2CCNCC2)cc1` (centres unmarked) [drawing 88], the MIC in experiment [1] (setting [5]) lay within 50 to 100 mM (≈ 34300 to 68600 µg/mL); in experiment [1] (setting [6]), 6 to 13 mM (≈ 4110 to 8920 µg/mL); in experiment [2] (setting [7]), 50 to 100 mM (≈ 34300 to 68600 µg/mL); in experiment [2] (setting [8]) it was 3 to 6 mM (≈ 2060 to 4110 µg/mL).
Consider `CN(C)CCCOc1ccc(C(NC(=O)c2ccc(-c3cccc(N(C)Cc4ccc(-c5ccccc5)cc4)c3)o2)C(=O)N2CCNCC2)cc1` (centres unmarked) [drawing 89], for which the MIC in experiment [1] (setting [5]) is more than 100 mM; in experiment [1] (setting [6]) it was 6 to 13 mM (≈ 4120 to 8920 µg/mL); in experiment [2] (setting [7]) it was 50 to 100 mM (≈ 34300 to 68600 µg/mL); in experiment [2] (setting [8]), 3 to 6 mM (≈ 2060 to 4120 µg/mL).
